The values below come from patent US9078441B2, “Antimicrobial flush solutions” (Board of Regents, The University of Texas System, priority 2003, dated 2015).

One assay has as its system Candida parapsilosis. Kind of assay: Silicone disk bioprosthetic colonization Candida parapsilosis model. It is filed as cell-based. To be noted: for suppression / eradication of Candida parapsilosis growth on silicone disks, in words / 1 hour in Drug Mean CFU C. Parapsilosis: 1 hour exposure; for 1 hour in Drug Mean CFU C. Parapsilosis / 24 h Growth after 1 hour in Drug Mean CFU C. Parapsilosis: silicone disks; for 24 h Growth after 1 hour in Drug Mean CFU C. Parapsilosis: exposure then 24 h reincubation in TSB. The protocol:
(§1) On day 1, pieces of biofilm were prepared. Sterile (Ethylene Oxide Gas Sterilized) silicone disks were placed in 5 ml sterile snap top Falcon tubes and 0.5 ml of pooled plasma added. This was followed by incubation (while rocking) overnight at 37° C.
(§2) On day 2, the bacteria was added to form the biofilm. Using sterile plastic transfer pipettes, the plasma was suctioned out from the tubes and replaced with 0.5 ml of bacterial inoculum (50 ml of Mueller-Hinton broth containing 4-5 colonies of freshly grown bacteria). The tubes were incubated overnight at 37° C.
(§3) On day 3, a drug was added in an attempt to kill the bacteria. Before adding the drug, the pieces were washed in 0.5 ml of 0.9% saline in order to remove any planktonic bacteria. The tubes (containing the biofilm disks and saline) were placed in the incubator at 37° C. for 30 minutes. The saline was then pipetted out using sterile plastic transfer pipettes (taking care not to disturb the pieces too much). The silicone disks were then transferred to new 5 ml snap-top falcon tubes containing 0.5 ml of the drug solution to be tested. The drug solutions tested were as follows: (1) minocycline 3 mg/ml; (2) EDTA 30 mg/ml; (3) 25% ethanol solution; (4) EDTA 30 mg/ml in 25% ethanol; (5) minocycline 3 mg/ml in 25% ethanol; (6) minocycline 3 mg/ml with EDTA 30 mg/ml; and (7) triple combination of minocycline 3 mg/ml and EDTA 30 mg/ml in 25% ethanol solution. The disks were allowed to sit in the drug for 1 hour. The drug was then suctioned out using a plastic transfer pipette. The pieces were once again washed with 0.5 ml saline (added, and shaken for 30 seconds). The disks were then transferred to 15 ml snap-top falcon tubes containing 5 ml of 0.9% saline. The pieces were sonicated for 5 minutes, and then vortexed for 30 seconds. 100 microliters (μl) of the saline was then plated on a room temperature TSAII blood agar plate, and evenly spread using a sterile glass spreader. The plates were incubated overnight at 37° C.
(§4) For the 24 hour reincubation studies, pieces of biofilm were prepared the same exact way as the regular pieces. Before adding the drug, the pieces were washed in 0.5 ml of 0.9% saline in order to remove any planktonic bacteria. The tubes (now containing the biofilm disks and saline) were placed in the incubator at 37° C. for 30 minutes. The saline was then pipetted out using sterile plastic transfer pipettes (taking care not to disturb the pieces too much). The silicone disks were then transferred to new 5 ml snap-top falcon tubes containing 0.5 ml of the drug to be tested. […] The drug was then suctioned out using a plastic transfer pipette. The pieces were once again washed with 0.5 ml saline (added, and shaken for 30 seconds). The pieces were then transferred to new sterile 5 ml snap-top falcon tubes containing 0.5 ml of sterile trypticase soy broth (TSB) and then placed in the incubator at 37° C. overnight.
(§5) On day 4, colonies were counted and the results recorded. The colonies were hand counted, and counting was stopped at 100 colonies. Anything greater was considered >100 colonies. The counts were recorded, and multiplied by a factor of 50 because of the dilution factor between the 5 ml of saline containing the disk and the 100 μl that was plated onto the TSAII blood agar plates. The pieces were then sonicated (in the same TSB that grew overnight) for 5 minutes. 100 μl was then plated on TSAII blood agar plates, and the plates were placed in the incubator to grow overnight at 37° C.
(§6) On day 5, the regrowth pieces were counted. The colonies were hand counted, and counting was stopped at 100 colonies. Anything greater was considered >100 colonies. The counts were recorded, and multiplied by a factor of 5 because of the dilution factor between the 0.5 ml of TSB containing the disk and the 100 μl that was plated onto the TSAII blood agar plates.

Another assay concerns MRSA. The assay is described as follows: Silicone disk bioprosthetic colonization MRSA model. Format: cell-based, Staphylococcus aureus. Particulars: for suppression / eradication / regrowth of bioprosthetic MRSA colonization of silicone disks, in words / 1 hour in Drug Mean CFU ± std. error: 1 hour exposure; for suppression / eradication / regrowth of bioprosthetic MRSA colonization of silicone disks, in words: with or without 24 h incubation; for 1 hour in Drug Mean CFU ± std. error / 24 h Growth after 1 hour in Drug Mean CFU ± std. error: MRSA on silicone disks; for 1 hour in Drug Mean CFU ± std. error: up to 5,000 CFU/disk; for 24 h Growth after 1 hour in Drug Mean CFU ± std. error: exposure then 24 h reincubation in TSB. The protocol:
as §1, §2, §3, §4, §5, §6

The next assay deals with C. parapsilosis. Kind of assay: Modified Robbins device (MRD) in vitro colonization model, Candida parapsilosis in biofilm on silicone catheter segments. It is filed as cell-based. To be noted: for 24 h Growth after 15 Minutes in Drug Mean CFU C. Parapsilosis / suppression / eradication / regrowth of C. parapsilosis embedded in biofilm, in words: 15 min exposure; for 24 h Growth after 15 Minutes in Drug Mean CFU C. Parapsilosis: then re-incubation in broth for 24 h; for suppression / eradication / regrowth of C. parapsilosis embedded in biofilm, in words: with or without 24 h re-incubation in broth; for 15 Minutes in Drug Mean CFU C. Parapsilosis: cultured immediately after 15 min exposure at 37° C. The text has this: (§7) The in vitro model utilized a modified Robbins device (MRD) to study the colonization of catheter segments with organisms embedded in biofilm. The modified Robbins device has been previously described (Nickel et al., 1991; Evans et al., 1987, see also U.S. Pat. No. 5,362,754) and is constructed from an acrylic block, 42 cm long with a lumen of 2×10 mm. It consists of 25 evenly spaced specimen plugs, each connected to a silicone catheter segment (Allegiance Healthcare Corp., McGaw Park, Ill.) whose anterior surface (0.3 cm^2) comes in conta-ct with the flushed infusate. After placing the catheter segments in the specimen plug of the modified Robbins device, the entire apparatus was gas sterilized using ethylene oxide. A 500 ml 5% dextrose in water (5% D5/W) was connected to the modified Robbins device through an intravenous tubing administration set and was subsequently infected with an innoculum of 10^8 CFU/ml of methicillin-resistant Staphylococcus aureus (MRSA), to produce an infected infusate at the concentration of 2×10^5 CFU/ml. The biofilm-producing S. aureus isolates were obtained from patients with CRBSI. In another series of experiments, 500 ml 5% D5/W bag was infected with a biofilm-producing C. parapsilosis using an inoculum of 10^5 CFU/ml to produce an infected infusate at a concentration of 2×10^2 CFU/ml of C. parapsilosis. The whole system was incubated at 37° C. and the infected infusate was flushed through the MRD using a peristaltic pump permitting the infusate to flow at the rate of 60 ml/hour for 8 hours. The modified Robbins device was left to incubate for a total of 18 hours (another 10 hours). Subsequently, the infected bag was removed and a 250 ml saline sterile bag which was infused through the MRD at 125 ml/hour for 2 hours in order to remove all free floating organisms. To insure biofilm formation, at least three catheter segments were randomly removed from the 25 evenly spaced catheter segments in the MRD and studied by scanning electron microscopy. This was repeated for every organism tested.
(§8) The remaining catheter segments were removed and each segment was placed in a tube containing 2 ml of one of the following broth solutions: (1) Mueller-Hinton broth (Becton Dickinson & Co., Cockeysville, Md.); (2) EDTA at a concentration of 30 mg/ml in broth (Abbott Laboratories, North Chicago, Ill.); (3) minocycline at 3 mg/ml in broth (Wyeth-Ayerst Laboratories, Collegeville, Pa.); (4) minocycline (3 mg/ml) and EDTA combination (M-EDTA) in broth; (5) 25% ethanol (ETOH) solution in broth; (6) minocycline at 3 mg/ml in 25% ethanol solution in broth; (7) EDTA 30 mg/ml in 25% ethanol solution in broth; and (8) M-EDTA in 25% ethanol solution in broth. The experiments were repeated in triplicate or quadruplicate, and during each experiment, 2-5 catheter segments were exposed to the same solution for only 15 minutes at 37° C. Subsequently, some of the catheter segments were immediately removed and cultured by scrape sonication. Other alternating catheter segments were removed, placed in broth (TSB), incubated for 24 hours, and then cultured by scrape sonication. This added step of re-incubating catheter segments in broth after the 15 minutes exposure was done to determine whether these agents suppressed the growth of organisms embedded in biofilm or eradicated them. The surface of the catheter segment that was exposed to the infected infusate was scraped with a sterile wooden applicator stick and placed, along with the stick, in a tube containing 0.5 ml of trypticase soy broth. The tubes were sonicated for five minutes; 0.1 ml of the sonicated broth solution in the tube was pipetted and plated over a blood agar plate, which was incubated at 37° for 24 hours. The agar plates were checked for any contaminants. The isolated organisms had to be of the same species and colonial morphology as the original organism used to infect the infusate.

Assay [1] concerns methicillin-resistant Staphylococcus aureus (MRSA). Kind of assay: Modified Robbins device (MRD) in vitro colonization model, MRSA in biofilm on silicone catheter segments. Format: cell-based. Particulars: for 24 h growth after 15 min in drug mean CFU MRSA / suppression / eradication / regrowth of MRSA embedded in biofilm, in words: 15 min exposure; for 24 h growth after 15 min in drug mean CFU MRSA: then re-incubation in broth for 24 h at 37° C.; for suppression / eradication / regrowth of MRSA embedded in biofilm, in words: with or without 24 h re-incubation in broth; for 15 minutes in Drug mean CFU MRSA: catheter segments cultured by scrape sonication immediately after 15 min exposure at 37° C., confluent growth counted as 500.
Excerpt: as §7, §8

Assay [2] relates to organisms that colonize the lumen of the catheter. Particulars: dwell time of 4-24 hours; cited from earlier work.

`CN(C)c1ccc(O)c2c1C[C@H]1C[C@H]3[C@H](N(C)C)C(O)=C(C(N)=O)C(=O)[C@@]3(O)C(O)=C1C2=O` [3 mg/ml minocycline, minocycline]: in the assay with Candida parapsilosis, the “suppression / eradication of Candida parapsilosis growth on silicone disks, in words” value is on record as “failed to suppress or eradicate”; the “1 hour in Drug Mean CFU C. Parapsilosis” value worked out at 5000.0 ± 0.0 CFU; the “24 h Growth after 1 hour in Drug Mean CFU C. Parapsilosis” value worked out at 5000.0 ± 0.0 CFU. In the assay on MRSA, the “suppression / eradication / regrowth of bioprosthetic MRSA colonization of silicone disks, in words” value is listed as “failed to suppress”; the “1 hour in Drug Mean CFU ± std. error” value came to 5000.0 ± 0.0 CFU; the “24 h Growth after 1 hour in Drug Mean CFU ± std. error” value worked out at 5000.0 ± 0.0 CFU. For the same compound, in the assay with C. parapsilosis, the “24 h Growth after 15 Minutes in Drug Mean CFU C. Parapsilosis” value (“24 h Growth after 15 Minutes” for short) is recorded as 500.0 ± 0.0 CFU; the “suppression / eradication / regrowth of C. parapsilosis embedded in biofilm, in words” value is recorded as “failed to eradicate”; the “15 Minutes in Drug Mean CFU C. Parapsilosis” value worked out at 138.3 ± 111.8 CFU. In assay [1], the “24 h growth after 15 min in drug mean CFU MRSA” value worked out at 308.3 ± 151.1 CFU; the “suppression / eradication / regrowth of MRSA embedded in biofilm, in words” value was “some decrease in colonization”; the “15 minutes in Drug mean CFU MRSA” value worked out at 323.7 ± 199.0 CFU.
On to `CCO` [25% EtOH in MHB, ethanol], for which, in the assay on Candida parapsilosis, the “suppression / eradication of Candida parapsilosis growth on silicone disks, in words” value is “failed to completely suppress”; the “1 hour in Drug Mean CFU C. Parapsilosis” value amounted to 1933 ± 601.6 CFU; the “24 h Growth after 1 hour in Drug Mean CFU C. Parapsilosis” value is 3875.0 ± 618.3 CFU. In addition, in the assay on MRSA, the “suppression / eradication / regrowth of bioprosthetic MRSA colonization of silicone disks, in words” value was “failed to suppress”; the “1 hour in Drug Mean CFU ± std. error” value is 2900.0 ± 722.8 CFU; the “24 h Growth after 1 hour in Drug Mean CFU ± std. error” value is given as 5000.0 ± 0.0 CFU. Further, in the assay on C. parapsilosis, the “24 h Growth after 15 Minutes” value was determined as 142.9 ± 225.9 CFU; the “suppression / eradication / regrowth of C. parapsilosis embedded in biofilm, in words” value was “regrowth was noted”; the “15 Minutes in Drug Mean CFU C. Parapsilosis” value is recorded as 0 CFU. In addition, in assay [1], the “24 h growth after 15 min in drug mean CFU MRSA” value was found to be 500.0 ± 0.0 CFU and the “15 minutes in Drug mean CFU MRSA” value was determined as 138.0 ± 193.8 CFU. In addition, in assay [1] (listed as 25% ethanol solution), the “24 h growth after 15 min in drug mean CFU MRSA” value stood at 500 CFU and the “15 minutes in Drug mean CFU MRSA” value worked out at 138 CFU.
On to `O=C(O)CN(CCN(CC(=O)O)CC(=O)O)CC(=O)O` [30 mg/ml EDTA, ethylenediamine-N,N,N′,N′,-tetraacetic acid], for which, in the assay with Candida parapsilosis, the “suppression / eradication of Candida parapsilosis growth on silicone disks, in words” value is recorded as “failed to suppress or eradicate”; the “1 hour in Drug Mean CFU C. Parapsilosis” value is 5000.0 ± 0.0 CFU; the “24 h Growth after 1 hour in Drug Mean CFU C. Parapsilosis” value worked out at 5000.0 ± 0.0 CFU. In the assay with MRSA, the “suppression / eradication / regrowth of bioprosthetic MRSA colonization of silicone disks, in words” value is “failed to suppress”; the “1 hour in Drug Mean CFU ± std. error” value is on record as 5000.0 ± 0.0 CFU; the “24 h Growth after 1 hour in Drug Mean CFU ± std. error” value worked out at 5000.0 ± 0.0 CFU. In the assay with C. parapsilosis, the “24 h Growth after 15 Minutes” value came to 500.0 ± 0.0 CFU; the “suppression / eradication / regrowth of C. parapsilosis embedded in biofilm, in words” value was “failed to eradicate”; the “15 Minutes in Drug Mean CFU C. Parapsilosis” value is on record as 160 ± 78.8 CFU. In addition, in assay [1], the “24 h growth after 15 min in drug mean CFU MRSA” value stood at 500.0 ± 0.0 CFU; the “suppression / eradication / regrowth of MRSA embedded in biofilm, in words” value is “failed to eradicate”; the “15 minutes in Drug mean CFU MRSA” value came to 479.6 ± 44.9 CFU.
For the compound `CN[C@H](CC(C)C)C(=O)N[C@H]1C(=O)N[C@@H](CC(N)=O)C(=O)N[C@H]2C(=O)N[C@H]3C(=O)N[C@H](C(=O)N[C@H](C(=O)O)c4cc(O)cc(O)c4-c4cc3ccc4O)[C@H](O)c3ccc(c(Cl)c3)Oc3cc2cc(c3O[C@@H]2O[C@H](CO)[C@@H](O)[C@H](O)[C@H]2O[C@H]2C[C@](C)(N)[C@H](O)[C@H](C)O2)Oc2ccc(cc2Cl)[C@H]1O` [vancomycin alone, vancomycin], the “eradication of microbial organisms embedded in biofilm from catheter surfaces, in words” value in assay [2] is listed as “failed to eradicate”.
